# Measurements taken from US10925858B2, “S-nitrosoglutathione (GSNO) and GSNO reductase inhibitors for use in therapy” (MUSC FOUNDATION FOR RESEARCH DEVELOPMENT, priority 2017, dated 2021).
# Key:
# 3-nitrotyrosine = test: Western analysis of 3-nitrotyrosine in rat brains with TBI; assay type: in vivo, Sprague Dawley rats; conditions: 24 hr after TBI, traumatic penumbra; GSNO 0.05 mg/kg i.v. or FeTPPS 3 mg/kg i.v.
# Procedure: Western immunoblot analysis was performed by standard method using 50 μg of cell lysates. Following the SDS-PAGE electrophoresis, proteins were transferred from the gel onto the Polyvinylidene fluoride membrane (GE Healthcare Life Sciences, Marlborough, Mass.). Membranes were blocked with non-fat dry milk (Santa Cruz Biotechnology) or I-Block™ (ThermoFisher Scientific, Waltham, Mass.) for detection of phospho-proteins and incubated with primary antibodies, such as MBP (Santa Cruz Biotech Cat #: sc13914; RRID: AB_648798), phospho-(Ser^19) MLC (Abeam, Cat #: ab2480; RRID: AB_303094), MLC (Abeam, Cat #: ab79935; RRID:AB_1952220), P-actin (Santa Cruz Biotechnology, Cat #: sc-47778; RRID:AB_2714189), phospho-eNOS (Ser^1177) (Cell Signaling, Cat #: 9571; RRID: AB_329837, Danvers, Mass.), eNOS (Cell Signaling, Cat #: 32027), RhoA (Santa Cruz Biotechnology; Cat #: sc418; RRID: AB_628218) or 3-nitrotyrosine (Abeam, Cat #: ab61392; RRID: AB_942087). […]
# All animals used in this study received humane care in compliance with the Medical University of South Carolina's (MUSC) guidance and the National Research Council's criteria for humane care. […] The group size was determined by power analysis based on our previous data (Khan et al., 2016b; Khan et al., 2009). […]
# mononuclear cells = test: H&E staining, peripheral mononuclear cell infiltration in EAE mice; assay type: in vivo, C57BL/6J mice; conditions: GSNO 1 mg/kg/day or FeTPPS 30 mg/kg/day i.p.
# Procedure: EAE was induced as described previously (Nath et al., 2009). Animal procedures were approved by the institutional animal care and use committee of MUSC (AR #1644). Briefly, female C57BL/6J mice of 8-12 weeks of age weighing 18-22 g (The Jackson Laboratory, Bar Harbor, Me., USA) were randomly divided into four groups: 1) EAE animals treated with vehicle (EAE; n=8), 2) EAE with GSNO (1 mg/kg body weight per day; i.p.) treatment (EAE+GSNO; n=12), 3) EAE with FeTPPS (30 mg/kg body weight per day; i.p.) treatment (EAE+FeTPPS; n=8), 4) control with vehicle (Ctrl; n=8). The group size was determined by power analysis based on our previous data (Nadi et al., 2009). Then, the mice were immunized subcutaneously in the flank regions with MOG35-55 peptide (MOG; 200 ug; Peptide International) emulsified (1:1) in 100 ul complete Freund's adjuvant (CFA) CHI day 0 and day 7. […] Clinical signs of EAE were scored in animal facility in a blinded fashion to experimenter between 2 and 4 pm daily by examiners blinded to experimental treatments using the following scale: 0=no clinical signs of disease; 1=limp tail or waddling gait with tail tonicity; 2=waddling gait with limp tail (ataxia); 2.5=ataxia with partial limb paralysis; 3=full paralysis of one limb; 3.5=full paralysis of one limb with partial paralysis of second limb; 4=full paralysis of two limbs; 4.5=moribund stage; 5=death. […]
SMILES,brain levels of 3-nitrotyrosine (3-nitrotyrosine),extravasation of peripheral mononuclear cells into the CNS (mononuclear cells)
"N[C@@H](CCC(=O)N[C@@H](CSN=O)C(=O)NCC(=O)O)C(=O)O [GSNO, S-nitrosoglutathione]",reduced,significantly decreased
"Cl.O=S(=O)([O-])c1ccc(-c2c3nc(c(-c4ccc(S(=O)(=O)O)cc4)c4ccc([nH]4)c(-c4ccc(S(=O)(=O)O)cc4)c4nc(c(-c5ccc(S(=O)(=O)O)cc5)c5ccc2[nH]5)C=C4)C=C3)cc1.[Fe] [FeTPPS, 5,10,15,20-Tetrakis(4-sulfonatophenyl)porphyrinato Iron (III), Cl, reference compound]",reduced,significantly decreased
